One data set has as its system gB. The data set is classed as binding, feline herpesvirus-1 (FHV-1).
Data set [1] concerns FHV-1. As to the kind of experiment: Fusion and entry assays with DIOC- and R18-labelled virus (confocal microscopy). The data set is classed as cell-based, feline herpesvirus-1 (FHV-1). As to conditions: 10 MOI, CRFK cells; for Adsorption of DIOC-labelled FHV-1: 4 °C 2 h.
A short description of a further data set: in vitro. As to conditions: cat.
The subject of data set [2] is FHV-1. Nature of the data set: Time of drug addition assay with qPCR of viral nucleic acid copies. In kind it is cell-based, feline herpesvirus-1 (FHV-1). As to conditions: for Inhibition of FHV-1 entry into host cells (virus entry assay): 4 °C pre-incubation then 37 °C, Saikosaponin B2 50 μg/mL; for FHV-1 nucleic acid copy numbers after drug pretreatment of cells: CRFK cells pretreated before infection, qPCR. In general terms: Quantitative PCR measures a nucleic acid by following its amplification.

For the next data set, the target named is FHV-1 gB (Feline herpesvirus 1, UniProt Q86665). As to the kind of experiment: biochemical. In kind it is binding, feline herpesvirus-1 (FHV-1). As to conditions: for Binding and dissociation kinetics in words: BLI, gB; for koff: read-out: Kdis (rate of dissociation); for kon: read-out: Kon (rate of association).
Data set [3] has as its system FHV-1. Nature of the data set: Cytopathic effect (CPE) inhibition assay. The following applies: for EC50: Felid alphaherpesvirus 1, CRFK, 48 h; for Anti-FHV-1: in vitro anti-FHV-1 effect in CRFK cells, √ / × (key not given).
Data set [4] deals with FHV-1. Nature of the data set: Plaque reduction assay. In kind it is cell-based, feline herpesvirus-1 (FHV-1). The following applies: CRFK cells.
Data set [5] concerns FHV-1. Also noted: method as in earlier work. As to conditions: reported for CRFK cells; cited from earlier work.
The test system of the next data set is CRFK cells. The following applies: 48 h, CCK-8.

In brackets after ≈: the same amount, converted by molar mass. Read-outs that look alike come from different tables or passages of the source.

Data on 21 compounds can be found in publication PMC10892935 (Viruses, 2024).

A word on the Kd: it is the free concentration of one partner at which half of the binding sites on the other are occupied at equilibrium, for simple one-to-one binding. Broadly, the kon is the rate constant with which the complex forms. As a reminder, the EC50 is the concentration at which the effect is half-maximal. Turning to `O=C1O[C@H]2[C@@H]3OC(=O)c4cc(O)c(O)c(O)c4-c4c(O)c(O)c5oc(=O)c6c(c(O)c(O)c7oc(=O)c4c5c76)-c4c(cc(O)c(O)c4O)C(=O)OC[C@H]3OC(O)[C@@H]2OC(=O)c2cc(O)c(O)c(O)c2-c2c1cc(O)c(O)c2O` (mixture of isomers) [Punicalagin], the “Thermal stability (Tm) of gB” value in the data set with gB is “altered the thermal stability of gB”. Besides, the “Adsorption of DIOC-labelled FHV-1” value with FHV-1 [1] is reported as “inhibit the adsorption of FHV-1”. Moreover, in the data set “in vitro”, the CC50 at 48 h is 3.32 ± 0.28 µg/mL. Besides, in the data set on FHV-1 [2], the “Inhibition of FHV-1 entry into host cells (virus entry assay)” value (“Inhibition … (virus entry assay)” below) was “reduced effectiveness in inhibiting virus infection” and the “FHV-1 nucleic acid copy numbers after drug pretreatment of cells” value (from here on “FHV-1 nucleic acid copy numbers”) is given as “negligible changes”. In addition, at FHV-1 gB, the Kd was below 1e-06 µM; the “Binding and dissociation kinetics in words” value is recorded as “rapid binding with no dissociation”; the koff was below 1e-07 s⁻¹; the kon came to 8740 M⁻¹ s⁻¹. In the data set with FHV-1 [3], the 50% effective concentration (EC50) was 2.19 µg/mL and the Anti-FHV-1 entry is “√”. The “Inhibition of FHV-1-induced cytopathic effects and plaque formation” value in the data set with FHV-1 [4] was “effective inhibitors”.
As for `O=C1OC[C@H]2OC(O)[C@H](O)[C@@H](O)[C@@H]2OC(=O)c2cc(O)c(O)c(O)c2-c2c(O)c(O)c3oc(=O)c4c(c(O)c(O)c5oc(=O)c2c3c54)-c2c1cc(O)c(O)c2O` (mixture of isomers) [Punicalin], the “Thermal stability (Tm) of gB” value with gB is reported as “altered the thermal stability of gB”. In the data set on FHV-1 [1], the “Adsorption of DIOC-labelled FHV-1” value was “inhibit the adsorption of FHV-1”. Also, the CC50 at 48 h in “in vitro” (CRFK cells) came to 7.65 ± 0.68 µg/mL. For the same compound, in the data set on FHV-1 [2], the “Inhibition … (virus entry assay)” value is listed as “reduced effectiveness in inhibiting virus infection” and the “FHV-1 nucleic acid copy numbers” value was “negligible changes”. At FHV-1 gB, the Kd is below 1e-06 µM; the “Binding and dissociation kinetics in words” value is given as “rapid binding with no dissociation”; the koff was below 1e-07 s⁻¹; the kon worked out at 12500 M⁻¹ s⁻¹. In addition, in the data set with FHV-1 [3], the EC50 was 0.22 µg/mL and the Anti-FHV-1 entry is “√”. Besides, in the data set with FHV-1 [4], the “Inhibition of FHV-1-induced cytopathic effects and plaque formation” value was “effective inhibitors”.
The compound `O=C(C=Cc1ccc(O)c(O)c1)OC1CC(O)(C(=O)O)CC(O)C1OC(=O)C=Cc1ccc(O)c(O)c1` (centres unmarked) [4,5-Dicaffeoylquinic acid] returned a CC50 at 48 h in the data set “in vitro” (CRFK cells) of 54.5 ± 2.89 µg/mL (≈ 106 µM). On FHV-1 gB, the Kd was 7.96 µM, the koff came out at 0.0652 s⁻¹ and the on-rate constant (kon) was found to be 8180 M⁻¹ s⁻¹. In the data set with FHV-1 [3], the Anti-FHV-1 result is recorded as “×”.
Regarding `Nc1nc2c(ncn2COCCO)c(=O)[nH]1` [Acyclovir], in the data set with FHV-1 [5], the EC50 is 13.04 µg/mL (≈ 57.9 µM).
The compound `C=CCS[S+]([O-])CC=C` (centres unmarked) [Allicin] came in with a CC50 at 48 h in the data set “in vitro” of 84.9 ± 0.87 µg/mL (≈ 523 µM). For the same compound, on FHV-1 gB, the equilibrium dissociation constant (Kd) came out at 3530 µM, the koff is 0.00299 s⁻¹ and the kon is 0.846 M⁻¹ s⁻¹. In addition, the Anti-FHV-1 result with FHV-1 [3] is given as “×”.
Turning to `O=C(O)[C@H]1O[C@@H](Oc2cc3oc(-c4ccccc4)cc(=O)c3c(O)c2O)[C@H](O)[C@@H](O)[C@@H]1O` [Baicalin], the CC50 at 48 h in the data set “in vitro” is 65.8 ± 2.12 µg/mL (≈ 147 µM). On FHV-1 gB, the Kd was 41.6 µM, the koff worked out at 0.922 s⁻¹ and the kon came to 1090 M⁻¹ s⁻¹. Moreover, the Anti-FHV-1 entry in the data set on FHV-1 [3] is recorded as “×”.
In the case of `Nc1ccn(C[C@@H](CO)OCP(=O)(O)O)c(=O)n1` [Cidofovir], in the data set with FHV-1 [5], the EC50 was 3.07 µg/mL (≈ 11 µM).
`O=C(/C=C/c1ccc(O)c(O)c1)O[C@@H]1C[C@@](OC(=O)/C=C/c2ccc(O)c(O)c2)(C(=O)O)C[C@@H](O)[C@@H]1O` [Cynarine] showed a CC50 at 48 h in the data set “in vitro” (CRFK cells) of 60.1 ± 1.86 µg/mL (≈ 116 µM). On FHV-1 gB, the Kd is 8.41 µM, the koff turned out to be 0.00596 s⁻¹ and the association rate constant (kon) was 709 M⁻¹ s⁻¹. Also, the Anti-FHV-1 result with FHV-1 [3] was “×”.
The compound `O=C1c2c(O)cc(O)cc2O[C@H](c2cc(O)c(O)c(O)c2)[C@H]1O` [Dihydromyricetin] gave a CC50 at 48 h in the data set “in vitro” of 3.22 ± 0.43 µg/mL (≈ 10.1 µM). Besides, on FHV-1 gB, the Kd is 36.1 µM, the koff worked out at 0.00506 s⁻¹ and the kon turned out to be 140 M⁻¹ s⁻¹. Also, the Anti-FHV-1 entry in the data set on FHV-1 [3] is “×”.
The like results for `COc1ccc(-c2cc(=O)c3c(O)cc(O[C@@H]4O[C@H](CO[C@@H]5O[C@@H](C)[C@H](O)[C@@H](O)[C@H]5O)[C@@H](O)[C@H](O)[C@H]4O)cc3o2)cc1O` [Diosmin] were, in that order, 449.75 ± 0.21 µg/mL (≈ 739 µM), 90.8 µM, 0.034 s⁻¹, 374 M⁻¹ s⁻¹ and “×”.
With `O=C(O)P(=O)(O)O` [Foscarnet], in the data set on FHV-1 [5], the EC50 is 44.71 µg/mL (≈ 355 µM).
As to `Nc1nc(O)c2ncn(COC(CO)CO)c2n1` [Ganciclovir], the 50% effective concentration (EC50) with FHV-1 [5] is 1.33 µg/mL (≈ 5.21 µM).
Take `O=c1c(O[C@@H]2O[C@H](CO)[C@H](O)[C@H](O)[C@H]2O)c(-c2ccc(O)c(O)c2)oc2cc(O)cc(O)c12` [Hyperoside]: the CC50 at 48 h in the data set “in vitro” was above 50 µg/mL. On FHV-1 gB, binding was put at a Kd of 23.9 µM, the koff stood at 0.00683 s⁻¹ and the on-rate (kon) came out at 286 M⁻¹ s⁻¹. Moreover, the Anti-FHV-1 entry with FHV-1 [3] is listed as “×”.
For the compound `O=c1[nH]c(=O)n([C@H]2C[C@H](O)[C@@H](CO)O2)cc1I` [Idoxuridine], in the data set with FHV-1 [5], the half-maximal effective concentration (EC50) was 1.52 µg/mL (≈ 4.29 µM).
In the data set “in vitro”, `O=c1c(O[C@@H]2O[C@H](CO)[C@@H](O)[C@H](O)[C@H]2O)c(-c2ccc(O)c(O)c2)oc2cc(O)cc(O)c12` [Isoquercetin] displayed a CC50 at 48 h of 289 ± 5.69 µg/mL (≈ 623 µM). At FHV-1 gB, binding was characterised by a dissociation constant (Kd) of 73.3 µM, the koff was found to be 0.0179 s⁻¹ and the association rate constant (kon) amounted to 245 M⁻¹ s⁻¹. In the data set on FHV-1 [3], the Anti-FHV-1 entry is “×”.
In the case of `Nc1nc2c(ncn2CCC(CO)CO)c(=O)[nH]1` [Penciclovir], in the data set with FHV-1 [5], the concentration giving a half-maximal response (EC50) is 3.50 µg/mL (≈ 13.8 µM).
For `CC1OC(OC2CCC3(C)C(CCC4(C)C3C=CC3=C5CC(C)(C)CCC5(CO)C(O)CC34C)C2(C)CO)C(O)C(OC2OC(CO)C(O)C(O)C2O)C1O` (centres unmarked) [Saikosaponin B2], the “Thermal stability (Tm) of gB” value in the data set on gB is listed as “altered the thermal stability of gB”. In the data set with FHV-1 [1], the “Adsorption of DIOC-labelled FHV-1” value is listed as “inhibit the adsorption of FHV-1”. Further, the “Entry of R18-labelled FHV-1” value in the data set on FHV-1 [1] (4 °C 2 h then 37 °C 2 h) was “inhibited the entry of FHV-1”. Also, in the data set “in vitro” (CRFK cells), the CC50 at 48 h was 197.5 ± 0.52 µg/mL (≈ 253 µM). In the data set with FHV-1 [2], the “Inhibition … (virus entry assay)” value is on record as “exhibited inhibitory effects” and the “FHV-1 nucleic acid copy numbers” value is reported as “negligible changes”. Also, the “Viral nucleic acid expression with drug treatment after infection” value with FHV-1 [2] (drug applied to CRFK cells infected with FHV-1, qPCR) is “remarkably significant difference”. The “Binding and dissociation kinetics in words” value at FHV-1 gB is “rapid binding and dissociation”. Moreover, in the data set with FHV-1 [3], a half-maximal response (EC50) required 13.5 µg/mL (≈ 17.3 µM) and the Anti-FHV-1 entry is “√”. Moreover, the “Inhibition of FHV-1-induced cytopathic effects and plaque formation” value in the data set with FHV-1 [4] is “effective inhibitors”.
Compound `O=C(O)[C@H]1O[C@@H](Oc2cc3oc(-c4ccc(O)cc4)cc(=O)c3c(O)c2O)[C@H](O)[C@@H](O)[C@@H]1O` [Scutellarin] showed a CC50 at 48 h in “in vitro” of 185 ± 3.37 µg/mL (≈ 401 µM). Also, on FHV-1 gB, the affinity, expressed as Kd, was 0.647 µM; the koff worked out at 0.00875 s⁻¹; the kon stood at 13500 M⁻¹ s⁻¹. For the same compound, the Anti-FHV-1 entry with FHV-1 [3] is reported as “×”.
The like results for `O=C(O)c1cc(O)c2c(c1)[C@H]([C@H]1c3cc(C(=O)O)cc(O)c3C(=O)c3c(O[C@@H]4O[C@H](CO)[C@@H](O)[C@H](O)[C@H]4O)cccc31)c1cccc(O[C@@H]3O[C@H](CO)[C@@H](O)[C@H](O)[C@H]3O)c1C2=O` [Sennoside A] were, in that order, 131 ± 8.86 µg/mL (≈ 152 µM), below 1e-06 µM, below 1e-07 s⁻¹, 1440 M⁻¹ s⁻¹ and “×”.
Compound `C[C@@H]1O[C@@H](O[C@@H]2[C@@H](O)[C@H](OCCc3ccc(O)c(O)c3)O[C@H](CO)[C@H]2OC(=O)/C=C/c2ccc(O)c(O)c2)[C@H](O)[C@H](O)[C@H]1O` [Verbascoside] registered a CC50 at 48 h in the data set “in vitro” of 79.6 ± 0.99 µg/mL (≈ 127 µM). At FHV-1 gB, the Kd came out at 39.9 µM, the koff amounted to 0.00729 s⁻¹ and the kon was 183 M⁻¹ s⁻¹. Moreover, the Anti-FHV-1 result in the data set on FHV-1 [3] is “×”.
For the compound Ivermectin, the CC50 with CRFK cells was 1.81 ± 0.06 µg/mL. Besides, in the data set on FHV-1 [3], the Anti-FHV-1 entry is reported as “×”.
